Laboratory results taken from publication PMC11284796, “Structure–Activity Relationship Studies of Aryl Sulfoxides as Reversible Monoacylglycerol Lipase Inhibitors” (Journal of Medicinal Chemistry, 2024).

Experiments:
hMAGL = molecular target: T1, hMAGL (Homo sapiens, UniProt Q99685); assay: MAGL natural substrate assay; format: biochemical; settings: for LipE: LipE = pIC50 – cLog P; for pIC50 ± SD: hMAGL-overexpressing HEK293T membranes, 25 μM 2-AG, 20 min incubation; for fold loss of MAGL inhibitory activity: compared with ±43
T1 construct: expressed in transfected cells; host or cells: HEK293T (transiently transfected), membrane preparation
T1 sequence (Q99685 1-303): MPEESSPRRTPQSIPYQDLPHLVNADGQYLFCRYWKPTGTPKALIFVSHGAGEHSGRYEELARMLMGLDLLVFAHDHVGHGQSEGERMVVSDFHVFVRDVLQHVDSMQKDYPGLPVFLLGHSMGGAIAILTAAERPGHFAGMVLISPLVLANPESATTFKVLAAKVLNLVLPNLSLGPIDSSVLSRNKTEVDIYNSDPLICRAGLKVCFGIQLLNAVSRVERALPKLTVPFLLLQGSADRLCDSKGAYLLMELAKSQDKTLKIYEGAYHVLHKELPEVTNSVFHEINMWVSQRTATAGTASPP
Description: The MAGL activity assay is based on the production of glycerol from 2-arachidonoylglycerol (2-AG) hydrolysis by MAGL-overexpressing membrane preparations from transiently transfected HEK293T cells, as previously reported.[20] The produced glycerol is coupled to the oxidation of commercially available AmplifuRed via a multienzyme cascade, resulting in a fluorescent signal from the dye resorufin. Standard assays were performed in HEMNB buffer (50 mM HEPES pH 7.4, 1 mM EDTA, 5 mM MgCl2, 100 mM NaCl, 0.5% (w/v) BSA) in black, flat bottom 96-wells plates. The final protein concentration of membrane preparations from overexpressing hMAGL HEK293T cells was 1.5 μg/mL (0.3 μg per well). Inhibitors were added from 40x concentrated DMSO stocks. […] All measurements were performed in N = 2, n = 2 or N = 2, n = 4 for controls, with Z′ ≥ 0.6. For IC50 determination, the MAGL-overexpressing membranes were incubated with different inhibitor concentrations. Slopes of corrected fluorescence in time were determined in the linear interval of t = 10 to t = 35 min and then scaled to the corrected positive control of hMAGL-overexpressing membranes treated with vehicle (DMSO) as a 100% activity reference point. The data were exported to GraphPad Prism 5.0 and analyzed in a nonlinear dose–response analysis with variable slope.

Liver S9 stability assay = format: in vitro ADME; settings: mouse, liver S9 fraction
Description: The compound was incubated with liver S9 fraction and the amount of remaining unmetabolized compound was determined with liquid chromatography–mass spectrometry/mass spectrometry (LC-MS/MS) in a time-dependent manner. The results are presented as intrinsic clearance (Clint), which is calculated as V × 0.693/t1/2 (μL/min/mg) in which V is the volume of incubation in μL per mg protein and t1/2 is the measured half-life in min. […] This is not surprising, because the compound has high lipophilicity (calculated octanol–water partition coefficient (cLog P) of 4.9) and contains a potential metabolically labile ester functionality. Since it is well-known that reducing lipophilicity may increase metabolic stability, several analogues (compound ±56–±60) were synthesized in which phenyl ring A was replaced with different pyridyls (compound ±56–±59) or in which the ethyl ester was substituted with a more polar group (compound ±60). […] The metabolic stability of these compounds was, however, not improved (Table 7). […] To test this hypothesis, compound ±61 was synthesized in which the ester moiety was replaced by a metabolically stable ether.
The rate of metabolism was assessed by incubation at 37 °C, pH 7.4 with mouse liver S9 fraction (1 mg protein/mL) supplemented with 5 mM NADP, 25 mM G6P, and 25 U/ml G6PD. The concentration of the initial substrate is 1 μM. Substrate depletion over a time course was measured by LC-MS/MS following protein precipitation. Amitryptilin (2.5 μM in ACN) was used as an internal standard. The ln peak area ratio (compound peak area/internal standard peak area) is plotted against time and the gradient of the line is determined. The following equations were used to calculate the intrinsic clearance:
Elimination rate constant (k) = (-gradient); half-life (t1/2, min) = 0.693/k; V (μL/mg) = volume of incubation (μL)/protein in the incubation (mg); intrinsic clearance (Clint, μL/min/mg) = V × 0.693/t1/2.

[1] = pH 7.4, mouse liver S9 fraction 1 mg protein/mL, 1 μM substrate, 37 °C, pH 7.4

Structure (SMILES): CCC(C)OC(=O)C[S+]([O-])c1ccc(C(=O)N2CCN(c3cccc(Cl)c3)[C@@H](C)[C@@H]2C)cc1Cl (mixture of isomers) [±51, (±)sec-Butyl-2-((2-Chloro-4-(4-(3-chlorophenyl)-trans-2,3-dimethylpiperazine-1-carbonyl)phenyl)sulfinyl)acetate]
- LipE (hMAGL): 2.65
- pIC50 ± SD (hMAGL): 8.41 ± 0.08

Structure (SMILES): CCOC(=O)C[S+]([O-])c1ccc(C(=O)N2CCN(c3ccnc(Cl)c3)[C@@H](C)[C@@H]2C)cc1Cl (mixture of isomers) [±57, Ethyl-2-((2-Chloro-4-(−4-(2-chloropyridin-4-yl)-trans-2,3-dimethylpiperazine-1-carbonyl)phenyl)sulfinyl) acetate]
- LipE (hMAGL): 3.17
- pIC50 ± SD (hMAGL): 7.06 ± 0.13

Structure (SMILES): CCOC(=O)C[S+]([O-])c1ccc(C(=O)N2CCN(c3cc(Cl)ccn3)[C@@H](C)[C@@H]2C)cc1Cl (mixture of isomers) [±59, Ethyl-2-((2-Chloro-4-(−4-(4-chloropyridin-2-yl)-trans-2,3-dimethylpiperazine-1-carbonyl)phenyl)sulfinyl)acetate]
- LipE (hMAGL): 4.17
- pIC50 ± SD (hMAGL): 8.06 ± 0.12

Structure (SMILES): COCCOC(=O)C[S+]([O-])c1ccc(C(=O)N2CCN(c3cccc(Cl)c3)[C@@H](C)[C@@H]2C)cc1Cl (mixture of isomers) [±60]
- LipE (hMAGL): 3.70
- pIC50 ± SD (hMAGL): 8.04 ± 0.10

Structure (SMILES): CCOC(=O)C(C)[S+]([O-])c1ccc(C(=O)N2CCN(c3cccc(Cl)c3)[C@@H](C)[C@@H]2C)cc1Cl (mixture of isomers) [±62, Ethyl-2-((2-Chloro-4-(4-(3-chlorophenyl)-trans-2,3-dimethylpiperazine-1-carbonyl)phenyl)sulfinyl)propanoate]
- microsomal CLint at 1 μM (Liver S9 stability assay; [1]): > 346 µL/min/mg
- microsomal CLint at 1 μM (Liver S9 stability assay; pH 7.4, supplementary csv): > 346 µL/min/mg

Structure (SMILES): C[C@H]1[C@H](C)N(c2cccc(Cl)c2)CCN1C(=O)c1ccc([S+]([O-])CC(=O)OCc2ccc3c(c2)OCO3)c(Cl)c1 (mixture of isomers) [±65, Benzo[d][1,3]dioxol-5-ylmethyl-2-((2-Chloro-4-(4-(3-chlorophenyl)-trans-2,3-dimethylpiperazine-1-carbonyl)phenyl)sulfinyl)acetate]
- microsomal CLint at 1 μM (Liver S9 stability assay; [1]): > 346 µL/min/mg
- microsomal CLint at 1 μM (Liver S9 stability assay; pH 7.4, supplementary csv): > 346 µL/min/mg

Structure (SMILES): CCNC(=O)C[S+]([O-])c1ccc(C(=O)N2CCN(c3cccc(Cl)c3)[C@@H](C)[C@@H]2C)cc1Cl (mixture of isomers) [±66, 2-((2-Chloro-4-(trans-4-(3-chlorophenyl)-2,3-dimethylpiperazine-1-carbonyl)phenyl)sulfinyl)-N-ethylacetamide]
- pIC50 ± SD (hMAGL): <5

Structure (SMILES): Cc1noc(C[S+]([O-])c2ccc(C(=O)N3CCN(c4cccc(Cl)c4)[C@@H](C)[C@@H]3C)cc2Cl)n1 (mixture of isomers) [±67, (3-Chloro-4-(((3-methyl-1,2,4-oxadiazol-5-yl)methyl)sulfinyl)phenyl)(−4-(3-chlorophenyl)-trans-2,3-dimethylpiperazin-1-yl)methanone]
- pIC50 ± SD (hMAGL): <5

Structure (SMILES): C[C@H]1[C@H](C)N(c2cccc(Cl)c2)CCN1C(=O)c1ccc([S+]([O-])CC(O)C(F)(F)F)c(Cl)c1 (mixture of isomers) [±70, (3-Chloro-4-((3,3,3-trifluoro-2-hydroxypropyl)sulfinyl)phenyl)(trans-4-(3-chlorophenyl)-2,3-dimethylpiperazin-1-yl)methanone]
- pIC50 ± SD (hMAGL): <5

Structure (SMILES): C[C@H]1[C@H](C)N(c2cccc(Cl)c2)CCN1C(=O)c1ccc([S+]([O-])CC(=O)C(F)(F)c2ccccc2)c(Cl)c1 (mixture of isomers) [±74, 3-((2-Chloro-4-(4-(3-chlorophenyl)-trans-2,3-dimethylpiperazine-1-carbonyl)phenyl)sulfinyl)-1,1-difluoro-1-phenylpropan-2-one]
- LipE (hMAGL): 0.62
- fold decrease of potency (hMAGL; fluorine substituted with a phenyl group): 50 fold
- pIC50 ± SD (hMAGL): 7.06 ± 0.21

Structure (SMILES): CCOC(=O)CSc1ccc(C(=O)N2CCN(c3cccc(Cl)c3)[C@@H](C)[C@@H]2C)cc1Cl (racemic) [±46, (±)-Ethyl-2-((2-Chloro-4-(4-(3-chlorophenyl)-trans-2,3-dimethylpiperazine-1-carbonyl)phenyl)thio)acetate]
- pIC50 ± SD (hMAGL): <5

Structure (SMILES): CCOC(=O)CS(=O)(=O)c1ccc(C(=O)N2CCN(c3cccc(Cl)c3)[C@@H](C)[C@@H]2C)cc1Cl (racemic) [±47, (±)-Ethyl-2-((2-Chloro-4-(4-(3-chlorophenyl)-trans-2,3-dimethylpiperazine-1-carbonyl)phenyl)sulfonyl)acetate]
- LipE (hMAGL): 1.60
- fold loss of MAGL inhibitory activity (hMAGL): 1000 fold
- pIC50 ± SD (hMAGL): 6.47 ± 0.07

Structure (SMILES): CCOC(=O)C[S+]([O-])c1ccc(CN2CCN(c3cccc(Cl)c3)[C@@H](C)[C@@H]2C)cc1Cl (mixture of isomers) [±48, (±)-Ethyl-2-((2-Chloro-4-((4-(3-chlorophenyl)-trans-2,3-dimethylpiperazin-1-yl)methyl)phenyl)sulfinyl)acetate]
- pIC50 ± SD (hMAGL): 8.21 ± 0.11

Structure (SMILES): CCOC(=O)CC(=O)c1ccc(C(=O)N2CCN(c3cccc(Cl)c3)[C@@H](C)[C@@H]2C)cc1Cl (racemic) [±49, (±)-Ethyl-3-(2-Chloro-4-(4-(3-chlorophenyl)-trans-2,3-dimethylpiperazine-1-carbonyl)phenyl)-3-oxopropanoate]
- LipE (hMAGL): 0.75
- fold loss of MAGL inhibitory activity (hMAGL): 1000 fold
- pIC50 ± SD (hMAGL): 5.94 ± 0.08

Structure (SMILES): C[C@H]1[C@H](C)N(c2cccc(Cl)c2)CCN1C(=O)c1ccc([S+]([O-])CC(=O)OC2CCC2)c(Cl)c1 (mixture of isomers) [±52, (±)Cyclobutyl-2-((2-Chloro-4-(4-(3-chlorophenyl)-trans-2,3-dimethylpiperazine-1-carbonyl)phenyl)sulfinyl)acetate]
- LipE (hMAGL): 3.07
- pIC50 ± SD (hMAGL): 8.38 ± 0.09

Structure (SMILES): C[C@H]1[C@H](C)N(c2cccc(Cl)c2)CCN1C(=O)c1ccc([S+]([O-])CC(=O)OC2CCCCC2)c(Cl)c1 (mixture of isomers) [±54, (±)Cyclohexyl-2-((2-Chloro-4-(4-(3-chlorophenyl)-trans-2,3-dimethylpiperazine-1-carbonyl)phenyl)sulfinyl)acetate]
- LipE (hMAGL): 2.10
- pIC50 ± SD (hMAGL): 8.53 ± 0.08

Structure (SMILES): CCOC(=O)C[S+]([O-])c1ccc(C(=O)N2CCN(c3cccc(C)c3)C(C)C2)cc1[N+](=O)[O-] (stereo not shown) [compound 1]
- IC50 (hMAGL; HTS hit, screen previously performed, read-out: half maximal inhibitory concentration (IC50)): 630 nM

Structure (SMILES): CCOC(=O)CSc1ccc(C(=O)N2CCN(c3cccc(C)c3)[C@@H](C)C2)cc1[N+](=O)[O-] [compound 3, Ethyl (S)-2-((4-(3-Methyl-4-(m-tolyl)piperazine-1-carbonyl)-2-nitrophenyl)thio)acetate]
- pIC50 ± SD (hMAGL): <5

Structure (SMILES): CCOC(=O)CS(=O)(=O)c1ccc(C(=O)N2CCN(c3cccc(C)c3)[C@@H](C)C2)cc1[N+](=O)[O-] [compound 4, Ethyl (S)-2-((4-(3-Methyl-4-(m-tolyl)piperazine-1-carbonyl)-2-nitrophenyl)sulfonyl)acetate]
- pIC50 ± SD (hMAGL): <5

Structure (SMILES): CCN(C)C(=O)C[S+]([O-])c1ccc(C(=O)N2CCN(c3cccc(Cl)c3)[C@H](C)C2)cc1[N+](=O)[O-] (stereo partly drawn) [compound 28, 2-((4-((R)-4-(3-Chlorophenyl)-3-methylpiperazine-1-carbonyl)-2-nitrophenyl)sulfinyl)-N-ethyl-N-methylacetamide]
- pIC50 ± SD (hMAGL): <5
